{"source": "patent EP4477653A1", "about": "(Perha Pharmaceuticals, priority 2023, dated 2024)"}
{"biological_target": "T1, human recombinant A3AR (expressed in HEK-293 cells) (Homo sapiens, UniProt P0DMS8)", "T1 construct": "host or cells: HEK-293 cells", "T1 sequence (P0DMS8 1-318)": "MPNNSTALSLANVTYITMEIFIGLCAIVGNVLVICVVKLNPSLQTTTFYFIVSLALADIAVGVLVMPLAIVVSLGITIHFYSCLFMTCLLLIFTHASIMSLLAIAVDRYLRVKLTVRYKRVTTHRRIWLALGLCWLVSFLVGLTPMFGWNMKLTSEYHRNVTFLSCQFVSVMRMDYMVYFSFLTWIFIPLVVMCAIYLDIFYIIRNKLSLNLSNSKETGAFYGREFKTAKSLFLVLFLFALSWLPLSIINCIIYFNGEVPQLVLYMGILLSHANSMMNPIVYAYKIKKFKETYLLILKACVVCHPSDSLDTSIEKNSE", "experiment": "Adenosine receptors antagonism assay (Eurofins), [125I]-AB-MECA radioligand competition", "type": "binding", "conditions": "[125I]-AB-MECA 0.15 nM, r.t., 120 min; IC50 from dose-response curves; read-out: Potency Class A3AR", "units": {"IC50": "nM"}}
{"smiles": "CC[C@@H](CO)Nc1cc(Nc2cccnn2)c2nnc(C3CC3)n2n1", "note": "[compound 182, (S)-2-((3-cyclopropyl-8-(pyridazin-3-ylamino)-[1,2,4]triazolo[4,3-b]pyridazin-6-yl)amino)butan-1-ol]", "IC50": "< 1"}
{"smiles": "CCCc1nnc2c(NCc3ccccn3)cc(NC(CC)CC)nn12", "note": "[compound 60, N6-(1-ethylpropyl)-3-propyl-N8-(2-pyridylmethyl)-[1,2,4]triazolo[4,3-b]pyridazine-6,8-diamine]", "IC50": "10 to 100"}
{"smiles": "c1ccc(CNc2cc(NC3CCCCCC3)nn3c(C4CC4)nnc23)nc1", "note": "[compound 201, N6-cycloheptyl-3-cyclopropyl-N8-(pyridin-2-ylmethyl)-[1,2,4]triazolo[4,3-b]pyridazine-6,8-diamine]", "IC50": "1 to 10"}
{"smiles": "CC[C@H](CO)Nc1nn2c(C(C)C)nnc2c(NCc2ccccc2)c1C", "note": "[compound 115, (2R)-2-[[8-(benzylamino)-3-isopropyl-7-methyl-[1,2,4]triazolo[4,3-b]pyridazin-6-yl]amino]butan-1-ol]", "IC50": "100 to 1000"}
{"smiles": "CCC(CC)Nc1cc(Nc2cncnc2)c2nnc(C(C)C)n2n1", "note": "[compound 151, 3-isopropyl-N6-(pentan-3-yl)-N8-(pyrimidin-5-yl)-[1,2,4]triazolo[4,3-b]pyridazine-6,8-diamine]", "IC50": "< 1"}
{"smiles": "CCC(CC)Nc1cc(NCCCc2cccnc2)c2nnc(C(C)C)n2n1", "note": "[compound 90, N6-(1-ethylpropyl)-3-isopropyl-N8-[3-(3-pyridyl)propyl]-[1,2,4]triazolo[4,3-b]pyridazine-6,8-diamine]", "IC50": "1 to 10"}
{"smiles": "CC(C)c1nnc2c(NCc3ccccc3)cc(NCCCCO)nn12", "note": "[compound 13, 4-[[8-(benzylamino)-3-isopropyl-[1,2,4]triazolo[4,3-b]pyridazin-6-yl]amino]butan-1-ol]", "IC50": "10 to 100"}
{"smiles": "CC(C)c1nnc2c(NCc3ccccc3)cc(NC3CCOCC3)nn12", "note": "[compound 23, N8-benzyl-3-isopropyl-N6-tetrahydropyran-4-yl-[1,2,4]triazolo[4,3-b]pyridazine-6,8-diamine]", "IC50": "10 to 100"}
{"smiles": "CC(C)c1nnc2c(NCc3ccccc3)cc(N3CCOCC3)nn12", "note": "[compound 6, N-benzyl-3-isopropyl-6-morpholino-[1,2,4]triazolo[4,3-b]pyridazin-8-amine]", "IC50": "100 to 1000"}
{"smiles": "COC(=O)CCNc1cc(NCc2ccccc2)c2nnc(C(C)C)n2n1", "note": "[compound 28, methyl 3-[[8-(benzylamino)-3-isopropyl-[1,2,4]triazolo[4,3-b]pyridazin-6-yl]amino]propanoate]", "IC50": "10 to 100"}
{"smiles": "COCCCCNc1cc(NCc2ccccc2)c2nnc(C(C)C)n2n1", "note": "[compound 14, N8-benzyl-3-isopropyl-N6-(4-methoxybutyl)-[1,2,4]triazolo[4,3-b]pyridazine-6,8-diamine]", "IC50": "10 to 100"}
{"smiles": "COCCCNc1cc(NCCCOC)c2nnc(-c3ccccc3)n2n1", "note": "[compound 109, N6,N8-bis(3-methoxypropyl)-3-phenyl-[1,2,4]triazolo[4,3-b]pyridazine-6,8-diamine]", "IC50": "100 to 1000"}
{"smiles": "CC(C)c1nnc2c(NCc3ccccc3O)cc(NC3CCOCC3)nn12", "note": "[compound 44, 2-[[[3-isopropyl-6-(tetrahydropyran-4-ylamino)-[1,2,4]triazolo[4,3-b]pyridazin-8-yl]amino]methyl]phenol]", "IC50": "10 to 100"}
{"smiles": "CC[C@H](CO)Nc1cc(Nc2cccnn2)c2nnc(C3CC3)n2n1", "note": "[compound 181, (R)-2-((3-cyclopropyl-8-(pyridazin-3-ylamino)-[1,2,4]triazolo[4,3-b]pyridazin-6-yl)amino)butan-1-ol]", "IC50": "< 1"}
{"smiles": "CCC(CC)Nc1cc(Nc2cccnc2)c2nnc(C(C)C)n2n1", "note": "[compound 47, N6-(1-ethylpropyl)-3-isopropyl-N8-(3-pyridyl)-[1,2,4]triazolo[4,3-b]pyridazine-6,8-diamine]", "IC50": "< 1"}
{"smiles": "CC(C)c1nnc2c(NCc3ccccn3)cc(NC3CC4(CCC4)C3)nn12", "note": "[compound 53, 3-isopropyl-N8-(2-pyridylmethyl)-N6-spiro[3.3]heptan-2-yl-[1,2,4]triazolo[4,3-b]pyridazine-6,8-diamine]", "IC50": "1 to 10"}
{"smiles": "CC(C)c1nnc2c(NCc3ccccc3O)cc(N[C@@H]3CCCOC3)nn12", "note": "[compound 43, 2-[[[3-isopropyl-6-[[(3R)-tetrahydropyran-3-yl]amino]-[1,2,4]triazolo[4,3-b]pyridazin-8-yl]amino]methyl]phenol]", "IC50": "10 to 100"}
{"smiles": "CCC(CC)Nc1cc(NCc2cccc(N)c2)c2nnc(C(C)C)n2n1", "note": "[compound 76, N8-[(3-aminophenyl)methyl]-N6-(1-ethylpropyl)-3-isopropyl-[1,2,4]triazolo[4,3-b]pyridazine-6,8-diamine]", "IC50": "1 to 10"}
{"smiles": "COCCCNc1cc(NCCCOC)c2nnc(C3CC3)n2n1", "note": "[compound 110, 3-cyclopropyl-N6,N8-bis(3-methoxypropyl)-[1,2,4]triazolo[4,3-b]pyridazine-6,8-diamine]", "IC50": "10 to 100"}
{"smiles": "CCC(CC)Nc1cc(Nc2ccncn2)c2nnc(C(C)C)n2n1", "note": "[compound 150, 3-isopropyl-N6-(pentan-3-yl)-N8-(pyrimidin-4-yl)-[1,2,4]triazolo[4,3-b]pyridazine-6,8-diamine]", "IC50": "< 1"}
{"smiles": "COc1ccc(CN(C)c2cc(NCc3ccccn3)c3nnc(C4CC4)n3n2)cc1", "note": "[compound 188, 3-cyclopropyl-N6-(4-methoxybenzyl)-N6-methyl-N8-(pyridin-2-ylmethyl)-[1,2,4]triazolo[4,3-b]pyridazine-6,8-diamine]", "IC50": "100 to 1000"}
{"smiles": "CCC(CC)Nc1cc(NCc2ccccn2)c2nnc(-c3cccnc3)n2n1", "note": "[compound 71, N6-(1-ethylpropyl)-3-(3-pyridyl)-N8-(2-pyridylmethyl)-[1,2,4]triazolo[4,3-b]pyridazine-6,8-diamine]", "IC50": "10 to 100"}
{"smiles": "CC[C@H](CO)Nc1cc(NCc2ccccc2O)c2nnc(C(C)C)n2n1", "note": "[compound 38, 2-[[[6-[[(1R)-1-(hydroxymethyl)propyl]amino]-3-isopropyl-[1,2,4]triazolo[4,3-b]pyridazin-8-yl]amino]methyl]phenol]", "IC50": "1 to 10"}
{"smiles": "CCC(CC)Nc1cc(Nc2ncccn2)c2nnc(C(C)C)n2n1", "note": "[compound 152, 3-isopropyl-N6-(pentan-3-yl)-N8-(pyrimidin-2-yl)-[1,2,4]triazolo[4,3-b]pyridazine-6,8-diamine]", "IC50": "10 to 100"}
{"smiles": "COCCCNc1cc(NCCCOC)c2nnc(C(F)(F)F)n2n1", "note": "[compound 111, N6,N8-bis(3-methoxypropyl)-3-(trifluoromethyl)-[1,2,4]triazolo[4,3-b]pyridazine-6,8-diamine]", "IC50": "10 to 100"}
{"smiles": "CCC(CC)Nc1cc(Nc2ccncc2)c2nnc(C3CC3)n2n1", "note": "[compound 174, 3-cyclopropyl-N6-(1-ethylpropyl)-N8-(4-pyridyl)-[1,2,4]triazolo[4,3-b]pyridazine-6,8-diamine]", "IC50": "< 1"}
{"smiles": "CC(C)c1nnc2c(NCc3ccccc3)cc(N[C@@H]3CCOC3)nn12", "note": "[compound 19, N8-benzyl-3-isopropyl-N6-[(3R)-tetrahydrofuran-3-yl]-[1,2,4]triazolo[4,3-b]pyridazine-6,8-diamine]", "IC50": "10 to 100"}
{"smiles": "CCC(CC)Nc1cc(NCCc2ccccn2)c2nnc(C3CC3)n2n1", "note": "[compound 86, 3-cyclopropyl-N6-(1-ethylpropyl)-N8-[2-(2-pyridyl)ethyl]-[1,2,4]triazolo[4,3-b]pyridazine-6,8-diamine]", "IC50": "< 1"}
{"smiles": "c1ccc(CNc2cc(NCc3cccs3)nn3c(C4CC4)nnc23)nc1", "note": "[compound 210, 3-cyclopropyl-N8-(pyridin-2-ylmethyl)-N6-(thiophen-2-ylmethyl)-[1,2,4]triazolo[4,3-b]pyridazine-6,8-diamine]", "IC50": "1 to 10"}
{"smiles": "CC(C)c1nnc2c(NCc3ccc(-c4ccccn4)cc3)cc(N[C@H](CO)[C@@H](C)O)nn12", "note": "[compound 107, (2R,3R)-2-[[3-isopropyl-8-[[4-(2-pyridyl)phenyl]methylamino]-[1,2,4]triazolo[4,3-b]pyridazin-6-yl]amino]butane-1,3-diol]", "IC50": "10 to 100"}
{"smiles": "c1ccc(CNc2cc(NCC3CCC3)nn3c(C4CC4)nnc23)nc1", "note": "[compound 204, N6-(cyclobutylmethyl)-3-cyclopropyl-N8-(pyridin-2-ylmethyl)-[1,2,4]triazolo[4,3-b]pyridazine-6,8-diamine]", "IC50": "1 to 10"}
{"smiles": "CCC(CC)Nc1cc(NCc2ccccn2)c2nnc(C)n2n1", "note": "[compound 58, N6-(1-ethylpropyl)-3-methyl-N8-(2-pyridylmethyl)-[1,2,4]triazolo[4,3-b]pyridazine-6,8-diamine]", "IC50": "10 to 100"}
{"smiles": "COCCCNc1cc(NCc2ccccc2)c2nnc(C(C)C)n2n1", "note": "[compound 10, N8-benzyl-3-isopropyl-N6-(3-methoxypropyl)-[1,2,4]triazolo[4,3-b]pyridazine-6,8-diamine]", "IC50": "10 to 100"}
{"smiles": "c1ccc(CNc2cc(NCc3ccco3)nn3c(C4CC4)nnc23)nc1", "note": "[compound 208, 3-cyclopropyl-N6-(furan-2-ylmethyl)-N8-(pyridin-2-ylmethyl)-[1,2,4]triazolo[4,3-b]pyridazine-6,8-diamine]", "IC50": "1 to 10"}
{"smiles": "CCC(CC)Nc1cc(Nc2ccc(OC)nn2)c2nnc(C3CC3)n2n1", "note": "[compound 215, 3-cyclopropyl-N8-(6-methoxypyridazin-3-yl)-N6-(pentan-3-yl)-[1,2,4]triazolo[4,3-b]pyridazine-6,8-diamine]", "IC50": "< 1"}
{"smiles": "CCC(CC)Nc1cc(NCc2ccccn2)c2nncn2n1", "note": "[compound 57, N6-(1-ethylpropyl)-N8-(2-pyridylmethyl)-[1,2,4]triazolo[4,3-b]pyridazine-6,8-diamine]", "IC50": "100 to 1000"}
{"smiles": "CCC(CC)Nc1cc(NCCc2cccnc2)c2nnc(C3CC3)n2n1", "note": "[compound 87, 3-cyclopropyl-N6-(1-ethylpropyl)-N8-[2-(3-pyridyl)ethyl]-[1,2,4]triazolo[4,3-b]pyridazine-6,8-diamine]", "IC50": "< 1"}
